Assay results from patent US9296751B1, “Indolizino[3,2-c]quinoline derivatives, pharmaceutically acceptable salt thereof, preparation method thereof and pharmaceutical composition for treatment of cystic fibrosis containing the same as active ingredient” (INDUSTRY-ACADEMIC COOPERATION FOUNDATION, YONSEI UNIVERSITY, priority 2014, dated 2016).

Assays:
[1] = biological target: T1, human cystic fibrosis conductance transmembrane regulator (CFTR) (Homo sapiens, UniProt P13569); test: Effect upon CFTR chloride ion channel activity (YFP fluorescence quenching by iodide influx in FRT cells); format: cell-based; conditions: for CFTR activity ratio, result in words: 30 μM, comment on Table 2; for Emax at 30 µM: FRT, 10 min, final concentration of 30 μM, reaction for 10 minutes, ratio based on the CFTR activity maximized by forskolin
T1 construct: expressed in transfected cells; host or cells: FRT cells (Fischer rat thyroid epithelial cells)
Procedure: FRT cells expressing […] specific to human cystic fibrosis conductance transmembrane regulator (CFTR) and iodide ions are cultured in the Coon's modified F-12 culture medium for 48 hours on a 96-well plate. Each well of the plate containing the cultured cells is washed three times with 200 μl of PBS buffer, and then 100 μl of PBS buffer is added to each well. The indolizino[3,2-c]quinoline derivative according to each Example is introduced to each well to a final concentration of 30 μM, followed by reaction for 10 minutes. After the completion of the reaction, the 96-well is mounted to a FLUOstar Omega microplate reader (BMG LABTECH) and 100 μl of NaI solution is added to each well. Then, YFP fluorescence reduced by the iodide ions introduced to the cells through CFTR is recorded at an interval of 0.4 seconds for 24 seconds in total, thereby evaluating the effect of each compound upon CFTR activity.
The effect of each indolizino[3,2-c]quinoline derivative upon CFTR chloride ion channel activity is calculated as an activity ratio based on the CFTR activity maximized by a well-known CFTR agonist, forskolin.

T1 sequence (P13569 whole entry): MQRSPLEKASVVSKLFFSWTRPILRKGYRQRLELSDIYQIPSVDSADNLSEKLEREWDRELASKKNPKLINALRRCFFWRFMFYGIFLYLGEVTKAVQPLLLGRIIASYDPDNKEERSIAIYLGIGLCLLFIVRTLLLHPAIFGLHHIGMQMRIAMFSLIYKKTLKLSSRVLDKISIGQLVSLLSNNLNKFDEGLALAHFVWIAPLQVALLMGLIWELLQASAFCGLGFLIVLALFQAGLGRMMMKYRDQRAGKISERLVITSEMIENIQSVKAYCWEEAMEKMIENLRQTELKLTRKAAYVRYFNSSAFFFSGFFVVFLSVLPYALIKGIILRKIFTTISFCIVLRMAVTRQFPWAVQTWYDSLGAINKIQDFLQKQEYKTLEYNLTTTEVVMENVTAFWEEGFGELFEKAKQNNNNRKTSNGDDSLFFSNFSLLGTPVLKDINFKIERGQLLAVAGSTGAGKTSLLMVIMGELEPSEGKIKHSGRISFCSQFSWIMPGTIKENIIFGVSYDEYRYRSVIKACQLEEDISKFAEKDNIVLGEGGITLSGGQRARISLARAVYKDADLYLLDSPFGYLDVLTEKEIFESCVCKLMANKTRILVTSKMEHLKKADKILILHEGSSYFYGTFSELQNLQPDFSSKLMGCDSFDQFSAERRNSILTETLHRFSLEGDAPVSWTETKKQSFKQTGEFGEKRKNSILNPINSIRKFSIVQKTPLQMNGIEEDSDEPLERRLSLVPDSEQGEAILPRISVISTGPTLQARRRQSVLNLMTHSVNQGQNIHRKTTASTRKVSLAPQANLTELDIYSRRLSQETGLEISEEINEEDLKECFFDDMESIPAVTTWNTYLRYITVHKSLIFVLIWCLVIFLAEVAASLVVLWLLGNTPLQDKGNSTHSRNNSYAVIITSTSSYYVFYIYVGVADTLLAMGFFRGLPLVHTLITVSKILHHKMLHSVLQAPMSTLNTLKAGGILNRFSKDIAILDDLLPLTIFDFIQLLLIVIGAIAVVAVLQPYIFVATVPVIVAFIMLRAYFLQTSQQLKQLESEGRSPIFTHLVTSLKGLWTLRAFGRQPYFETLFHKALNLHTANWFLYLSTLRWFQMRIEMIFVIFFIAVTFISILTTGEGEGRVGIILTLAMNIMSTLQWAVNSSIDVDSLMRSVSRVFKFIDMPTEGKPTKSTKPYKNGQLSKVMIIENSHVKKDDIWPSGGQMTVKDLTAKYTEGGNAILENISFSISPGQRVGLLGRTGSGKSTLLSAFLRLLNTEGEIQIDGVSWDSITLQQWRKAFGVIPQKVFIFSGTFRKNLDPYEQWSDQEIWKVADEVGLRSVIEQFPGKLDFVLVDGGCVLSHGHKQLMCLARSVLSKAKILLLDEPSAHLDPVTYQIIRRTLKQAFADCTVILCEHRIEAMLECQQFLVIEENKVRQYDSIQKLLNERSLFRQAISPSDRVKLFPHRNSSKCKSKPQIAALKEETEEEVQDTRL

Row | melting point | CFTR activity ratio, result in words [1] | Emax at 30 µM [1] | Structure (SMILES)
1 | 205.5 to 205.8 °C | high activity ratio | 85% | Brc1ccc(-c2nc3ccccc3c3cc4ccccn4c23)cc1 [Example 1, 6-(4-Bromophenyl)indolizino[3,2-c]quinoline]
2 | 167 to 167.4 °C |  |  | Fc1ccc(-c2nc3ccccc3c3cc4ccccn4c23)cc1 [Example 2, 6-(4-Fluorophenyl)indolizino[3,2-c]quinoline]
3 | 190.5 to 191 °C |  |  | Clc1ccc(-c2nc3ccccc3c3cc4ccccn4c23)cc1 [Example 3, 6-(4-Chlorophenyl)indolizino[3,2-c]quinoline]
4 | 124.3 to 125.3 °C |  |  | Clc1cccc(-c2nc3ccccc3c3cc4ccccn4c23)c1 [Example 4, 6-(3-Chlorophenyl)indolizino[3,2-c]quinoline]
5 | 246.3 to 246.5 °C | high activity ratio | 93% | O=[N+]([O-])c1ccc(-c2nc3ccccc3c3cc4ccccn4c23)cc1 [Example 5, 6-(4-Nitrophenyl)indolizino[3,2-c]quinoline]
6 | 141.9 to 142.8 °C |  |  | c1ccc(-c2nc3ccccc3c3cc4ccccn4c23)cc1 [Example 6, 6-Phenylindolizino[3,2-c]quinoline]
7 | 164.3 to 164.7 °C |  |  | COc1ccc(-c2nc3ccccc3c3cc4ccccn4c23)cc1 [Example 7, 6-(4-Methoxyphenyl)indolizino[3,2-c]quinoline]
8 | 174 to 174.4 °C |  |  | COc1cccc(-c2nc3ccccc3c3cc4ccccn4c23)c1 [Example 8, 6-(3-Methoxyphenyl)indolizino[3,2-c]quinoline]
9 | 85.3 to 86 °C |  |  | Cc1ccc(-c2nc3ccccc3c3cc4ccccn4c23)cc1 [Example 9, 6-(p-Tolyl)indolizino[3,2-c]quinoline]
10 | 139.7 to 140.4 °C | high activity ratio | 63% | COc1cc(OC)cc(-c2nc3ccccc3c3cc4ccccn4c23)c1 [Example 10, 6-(3,5-Dimethoxyphenyl)indolizino[3,2-c]quinoline]
11 | 91.3 to 92 °C |  |  | COc1ccc(-c2nc3ccccc3c3cc4ccccn4c23)cc1OC [Example 11, 6-(3,4-Dimethoxyphenyl)indolizino[3,2-c]quinoline]
12 | 205.6 to 206.2 °C | high activity ratio | 83% | c1ccc2cc(-c3nc4ccccc4c4cc5ccccn5c34)ccc2c1 [Example 13, 6-(Naphthalen-2-yl)indolizino[3,2-c]quinoline]
13 | 161.4 to 161.7 °C | high activity ratio | 98% | Clc1ccc(-c2nc3ccccc3c3cc4ccccn4c23)s1 [Example 15, 6-(5-Chlorothiophen-2-yl)indolizino[3,2-c]quinoline]
14 | 176.1 to 176.5 °C |  | 50% | Cc1cccn2c1cc1c3ccccc3nc(-c3cccc(F)c3)c12 [Example 17, 6-(3-Fluorophenyl)-11-methylindolizino[3,2-c]quinoline]
15 | 259.7 to 260.4 °C |  |  | Cc1cccn2c1cc1c3ccccc3nc(-c3ccc([N+](=O)[O-])cc3)c12 [Example 18, 11-Methyl-6-(4-nitrophenyl)indolizino[3,2-c]quinoline]
16 | 165 to 166 °C |  |  | COc1cccc(-c2nc3ccccc3c3cc4c(C)cccn4c23)c1 [Example 19, 6-(3-Methoxyphenyl)-11-methylindolizino[3,2-c]quinoline]
17 | 162.5 to 163.1 °C |  |  | Cc1ccc(-c2nc3ccccc3c3cc4c(C)cccn4c23)cc1 [Example 20, 11-Methyl-6-(p-tolyl)indolizino[3,2-c]quinoline]
18 | 185.8 to 186.4 °C |  | 66% | COc1cc(OC)cc(-c2nc3ccccc3c3cc4c(C)cccn4c23)c1 [Example 21, 6-(3,5-Dimethoxyphenyl)-11-methylindolizino[3,2-c]quinoline]
19 | 162.8 to 163.3 °C |  |  | COc1ccc(-c2nc3ccccc3c3cc4c(C)cccn4c23)cc1OC [Example 22, 6-(3,4-Dimethoxyphenyl)-11-methylindolizino[3,2-c]quinoline]

Row | melting point | CFTR activity ratio, result in words [1] | Emax at 30 µM [1] | Structure (SMILES)
20 | 229.5 to 230 °C |  |  | COc1ccc(-c2nc3ccccc3c3cc4ccc(Br)cn4c23)cc1 [Example 24, 9-Bromo-6-(4-methoxyphenyl)indolizino[3,2-c]quinoline]
21 | 230.8 to 231.2 °C |  |  | Cc1ccc(-c2nc3ccccc3c3cc4ccc(Br)cn4c23)cc1 [Example 25, 9-Bromo-6-(p-tolyl)indolizino[3,2-c]quinolone]
22 | 188.5 to 189 °C |  |  | COc1ccc(-c2nc3ccccc3c3cc4ccc(Br)cn4c23)cc1OC [Example 26, 9-Bromo-6-(3,4-dimethoxyphenyl)indolizino[3,2-c]quinoline]
23 | 223.3 to 223.7 °C |  |  | Brc1ccc2cc3c4ccccc4nc(-c4ccc(Br)s4)c3n2c1 [Example 28, 9-Bromo-6-(5-bromothiophen-2-yl)indolizino[3,2-c]quinoline]
24 | 193.3 to 193.6 °C |  |  | Brc1ccc2cc3c4ccccc4nc(-c4ccco4)c3n2c1 [Example 29, 9-Bromo-6-(furna-2-yl)indolizino[3,2-c]quinoline]
25 | 232.3 to 232.5 °C |  |  | COC(=O)c1c2c3ccccc3nc(-c3ccc(Br)cc3)c2n2ccccc12 [Example 30, Methyl 6-(4-bromophenyl)indolizino[3,2-c]quinoline-12-carboxylate]
26 | 205.9 to 206.3 °C | high activity ratio |  | COC(=O)c1c2c3ccccc3nc(-c3cc(OC)cc(OC)c3)c2n2ccccc12 [Example 31, Methyl 6-(3,5-dimethoxyphenyl)indolizino[3,2-c]quinoline-12-carboxylate]
27 | 245.8 to 246.2 °C |  |  | COC(=O)c1c2c3ccccc3nc(-c3cccc4ccccc34)c2n2ccccc12 [Example 32, Methyl 6-(naphthalene-1-yl)indolizino[3,2-c]quinoline-12-carboxylate]
28 | 230.8 to 231.4 °C |  | 37% | COC(=O)c1c2c3ccccc3nc(-c3ccc[nH]3)c2n2ccccc12 [Example 33, Methyl 6-(1H-pyrrol-2-yl)indolizino[3,2-c]quinoline-12-carboxylate]
29 | 202.1 to 202.4 °C |  |  | CCOC(=O)c1c2c3ccccc3nc(-c3cccc(F)c3)c2n2ccccc12 [Example 34, Ethyl 6-(3-fluorophenyl)indolizino[3,2-c]quinoline-12-carboxylate]
30 | 214.3 to 214.5 °C |  |  | CCOC(=O)c1c2c3ccccc3nc(-c3cccc(Cl)c3)c2n2ccccc12 [Example 35]
31 | 245.8 to 246.1 °C |  |  | CCOC(=O)c1c2c3ccccc3nc(-c3ccc([N+](=O)[O-])cc3)c2n2ccccc12 [Example 36, Ethyl 6-(4-nitrophenyl)indolizino[3,2-c]quinoline-12-carboxylate]
32 | 173.4 to 173.8 °C |  |  | CCOC(=O)c1c2c3ccccc3nc(-c3cccc(OC)c3)c2n2ccccc12 [Example 37, Ethyl 6-(3-methoxyphenyl)indolizino[3,2-c]quinoline-12-carboxylate]
33 | 195.5 to 195.8 °C |  | 31% | CCOC(=O)c1c2c3ccccc3nc(-c3ccc(OC)c(OC)c3)c2n2ccccc12 [Example 38, Ethyl 6-(3,4-dimethoxyphenyl)indolizino[3,2-c]quinoline-12-carboxylate]
34 | 210.3 to 210.7 °C |  |  | CCOC(=O)c1c2c3ccccc3nc(-c3ccc4ccccc4c3)c2n2ccccc12 [Example 39, Ethyl 6-(naphthalene-2-yl)indolizino[3,2-c]quinoline-12-carboxylate]
35 | 256 to 256.6 °C |  |  | COc1ccc(-c2nc3ccccc3c3cc4ccc(-c5ccc([N+](=O)[O-])cc5)cn4c23)cc1 [Example 41, 6-(4-Methoxyphenyl)-9-(4-nitrophenyl)indolizino[3,2-c]quinoline]
36 | 177.5 to 177.8 °C |  |  | COc1cc(OC)cc(-c2ccc3cc4c5ccccc5nc(-c5cccc6ccccc56)c4n3c2)c1 [Example 42, 9-(3,5-Dimethoxyphenyl)-6-(naphthalene-1-yl)indolizino[3,2-c]quinoline]
37 | 91.3 to 92 °C |  |  | c1ccc2c(-c3nc4ccccc4c4cc5ccc(-c6ccoc6)cn5c34)cccc2c1 [Example 43, 9-(Furan-3-yl)-6-(naphthalene-1 yl)indolizino[3,2-c]quinoline]
38 | 221.6 to 221.9 °C |  |  | COc1ccc(-c2nc3ccccc3c3c(Br)c4ccccn4c23)cc1 [Example 44, 12-Bromo-6-(4-methoxyphenyl)indolizino[3,2-c]quinoline]
